We go through 26 compounds from US12071404B2, “Aza (indole)-, benzothiophene-, and benzofuran-3-sulfonamides” (UCB Pharma GmbH, priority 2016, dated 2024).

The target in experiment [1] is T1, GPR17 (Homo sapiens, UniProt Q13304). In words: cAMP accumulation functional assay (HTRF, Schild analysis). Type of experiment: cell-based. Also noted: host or cells: Flp-In T-REx CHO. The conditions noted are these: CHO hGPR17 cells, Schild analysis vs MDL29,951, 5 μM forskolin, read-out: cAMP assay pA2 (converted). Summed up: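 Antagonist affinity (pA2) came from Schild plots of dose ratios, based on MDL29,951 concentration-response curves fitted by 4-parameter logistic. The read-out was HTRF cAMP in 5,000 doxycycline-induced CHO hGPR17 cells per well, with 30 min compound preincubation and 60 min stimulation, at room temperature in pH 7.4 buffer.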
T1 sequence (Q13304 whole entry): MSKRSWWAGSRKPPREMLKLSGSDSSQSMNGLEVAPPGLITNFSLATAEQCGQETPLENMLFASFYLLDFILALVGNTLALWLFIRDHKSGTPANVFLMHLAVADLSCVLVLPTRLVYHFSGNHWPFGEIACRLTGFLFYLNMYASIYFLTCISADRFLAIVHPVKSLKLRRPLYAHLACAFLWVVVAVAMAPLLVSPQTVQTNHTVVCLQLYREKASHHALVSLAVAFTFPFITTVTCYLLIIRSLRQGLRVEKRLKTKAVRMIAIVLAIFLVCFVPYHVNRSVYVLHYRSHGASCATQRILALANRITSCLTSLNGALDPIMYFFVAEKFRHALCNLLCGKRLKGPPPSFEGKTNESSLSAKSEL
Background: Cyclic AMP is a second messenger, typically raised through Gs and lowered through Gi signalling.

The target of experiment [2] is T1, GPR17. In words: Calcium mobilization functional assay (GPR17 Ca2+ assay). Conditions: CHO hGPR17 cells, inhibition of 50 nM MDL29,951, Calcium 5 dye, FLIPR; read-out: Ca2+ assay pIC50 (converted). Type of experiment: cell-based. Also on record: host or cells: Flp-In T-REx CHO. Summed up:
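pIC50 values were fitted with a 4-parameter logistic curve. They reflect test-compound inhibition of cytosolic Ca2+ release evoked by 50 nM MDL29,951, tracked as Calcium 5 fluorescence at room temperature. Cells were CHO Flp-In T-REx stably carrying human GPR17, induced with doxycycline 1 μg/mL for 16-20 h.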

Some results are limits rather than exact numbers.

As to `O=S(=O)(Nc1ncc(Cl)cc1F)c1c[nH]c2cc(Cl)ccc12` [Compound I-202, 6-chloro-N-(5-chloro-3-fluoropyridin-2-yl)-1H-indole-3-sulfonamide], at GPR17 [1], the Kb was 3.16 to 31.6 nM. At GPR17 [2], the IC50 was less than 3.16 nM.
With `O=S(=O)(Nc1cc(F)c(OCC2CC2)cc1F)c1c[nH]c2cc(Cl)ccc12` [Compound I-260, 6-chloro-N-[4-(cyclopropylmethoxy)-2,5-difluorophenyl]-1H-indole-3-sulfonamide], the Kb at GPR17 [1] was 3.16 to 31.6 nM. Also, on GPR17 [2], the IC50 is 3.16 to 31.6 nM.
On to `O=S(=O)(Nc1cc(F)c(C(F)(F)F)cc1F)c1c[nH]c2cc(Cl)ccc12` [Compound I-269, 6-chloro-N-[2,5-difluoro-4-(trifluoromethyl)phenyl]-1H-indole-3-sulfonamide], for which the Kb at GPR17 [1] was less than 3.16 nM. On GPR17 [2], the IC50 is less than 3.16 nM.
On to `N#Cc1ccc(NS(=O)(=O)c2c[nH]c3cc(Cl)ccc23)cc1` [Compound I-12, 6-chloro-N-(4-cyanophenyl)-1H-indole-3-sulfonamide], for which the Kb at GPR17 [1] was 3.16 to 31.6 nM. Further, the IC50 on GPR17 [2] is less than 3.16 nM.
The like results for `N#Cc1ccc2c(S(=O)(=O)Nc3cc(F)c(Cl)cc3F)c[nH]c2c1` [Compound I-277, N-(4-chloro-2,5-difluorophenyl)-6-cyano-1H-indole-3-sulfonamide] were, in that order, less than 3.16 nM and 3.16 to 31.6 nM.
In the case of `COC/C=C/c1cc(F)c(NS(=O)(=O)c2c[nH]c3cc(Br)ccc23)nc1F` [Compound I-325, 6-bromo-N-{3,6-difluoro-5-[(1E)-3-methoxyprop-1-en-1-yl]pyridin-2-yl}-1H-indole-3-sulfonamide], on GPR17 [1], the Kb is less than 3.16 nM. On GPR17 [2], the IC50 was less than 3.16 nM.
Regarding `O=S(=O)(Nc1ccc(C(F)(F)F)cc1F)c1c[nH]c2cc(Cl)ccc12` [Compound I-299, 6-chloro-N-[2-fluoro-4-(trifluoromethyl)phenyl]-1H-indole-3-sulfonamide], the Kb at GPR17 [1] is less than 3.16 nM. In addition, at GPR17 [2], the IC50 is 3.16 to 31.6 nM.
The like results for `O=S(=O)(Nc1cc(F)ccc1F)c1c[nH]c2cc(Cl)ccc12` [Compound I-9, 6-chloro-N-(2,5-difluorophenyl)-1H-indole-3-sulfonamide] were, in that order, 3.16 to 31.6 nM and 3.16 to 31.6 nM.
Regarding `O=S(=O)(Nc1ccc2nsnc2c1)c1c[nH]c2cc(Br)ccc12` [Compound I-183, N-(2,1,3-benzothiadiazol-5-yl)-6-bromo-1H-indole-3-sulfonamide], the Kb at GPR17 [1] was less than 3.16 nM. For the same compound, the IC50 at GPR17 [2] was less than 3.16 nM.
Consider `COc1cc(C#N)c(F)cc1NS(=O)(=O)c1c[nH]c2c1ccc1ccccc12` [Compound I-289, N-(4-cyano-5-fluoro-2-methoxyphenyl)-1H-benzo[g]indole-3-sulfonamide], for which the Kb on GPR17 [1] is less than 3.16 nM. Also, the IC50 at GPR17 [2] is less than 3.16 nM.
Take `Cc1noc(C)c1-c1c(Cl)ccc2c(S(=O)(=O)Nc3cc(F)c(Cl)cc3F)c[nH]c12` [Compound I-250, 6-chloro-N-(4-chloro-2,5-difluorophenyl)-7-(3,5-dimethyl-1,2-oxazol-4-yl)-1H-indole-3-sulfonamide]: the Kb on GPR17 [1] is 3.16 to 31.6 nM. The IC50 on GPR17 [2] was 3.16 to 31.6 nM.
In the case of `COc1nc(NS(=O)(=O)c2c[nH]c3c(F)c(Cl)ccc23)c(F)cc1CC#N` [Compound I-354, 6-chloro-N-[5-(cyanomethyl)-3-fluoro-6-methoxypyridin-2-yl]-7-fluoro-1H-indole-3-sulfonamide], the Kb on GPR17 [1] is less than 3.16 nM. Also, the IC50 at GPR17 [2] is less than 3.16 nM.
Regarding `N#CCc1cc(F)c(NS(=O)(=O)c2c[nH]c3c2ccc2cccnc23)cc1F` [Compound I-361, N-[4-(cyanomethyl)-2,5-difluorophenyl]-1H-pyrrolo[3,2-h]quinoline-3-sulfonamide], the Kb on GPR17 [1] is less than 3.16 nM. For the same compound, the IC50 on GPR17 [2] is less than 3.16 nM.
For `COc1cc(Cl)c(F)cc1NS(=O)(=O)c1c[nH]c2c1ccc1ccccc12` [Compound I-175, N-(4-chloro-5-fluoro-2-methoxyphenyl)-1H-benzo[g]indole-3-sulfonamide], the Kb at GPR17 [1] is 3.16 to 31.6 nM. Further, the IC50 at GPR17 [2] is more than 31.6 nM.
Regarding `O=S(=O)(Nc1cc(F)c(Cl)cc1F)c1c[nH]c2c(F)c(Cl)ccc12` [Compound I-242, 6-chloro-N-(4-chloro-2,5-difluorophenyl)-7-fluoro-1H-indole-3-sulfonamide], the Kb on GPR17 [1] was less than 3.16 nM. The IC50 on GPR17 [2] is 3.16 to 31.6 nM.
The like results for `CS(=O)(=O)c1ccc2c(S(=O)(=O)Nc3cc(F)c(F)cc3F)c[nH]c2c1` [Compound I-239, 6-methylsulfonyl-N-(2,4,5-trifluorophenyl)-1H-indole-3-sulfonamide] were, in that order, more than 31.6 nM and more than 31.6 nM.
`N#Cc1ccc(NS(=O)(=O)c2c[nH]c3cc(-c4ccccc4)ccc23)c(F)c1` [Compound I-233, N-(4-cyano-2-fluorophenyl)-6-phenyl-1H-indole-3-sulfonamide]: the Kb on GPR17 [1] is more than 31.6 nM. Also, the IC50 at GPR17 [2] was 3.16 to 31.6 nM.
Take `O=S(=O)(Nc1cccc2nsnc12)c1c[nH]c2nc(Br)ccc12` [Compound I-78, N-(2,1,3-benzothiadiazol-4-yl)-6-bromo-1H-pyrrolo[2,3-b]pyridine-3-sulfonamide]: at GPR17 [1], the Kb is 3.16 to 31.6 nM. Moreover, the IC50 on GPR17 [2] is less than 3.16 nM.
On the same counts, the results for `N#Cc1ccc(NS(=O)(=O)c2c[nH]c3cc(C(F)(F)F)ccc23)c(F)c1` [Compound I-189, N-(4-cyano-2-fluorophenyl)-6-(trifluoromethyl)-1H-indole-3-sulfonamide] are less than 3.16 nM and less than 3.16 nM.
As for `O=S(=O)(Nc1cccc2c1OCO2)c1c[nH]c2nc(Br)ccc12` [Compound I-97, N-(1,3-benzodioxol-4-yl)-6-bromo-1H-pyrrolo[2,3-b]pyridine-3-sulfonamide], the Kb on GPR17 [1] is 3.16 to 31.6 nM. In addition, the IC50 at GPR17 [2] is 3.16 to 31.6 nM.
As to `COc1nc(NS(=O)(=O)c2c[nH]c3cc(Cl)ccc23)c(F)cc1CC#N` [Compound I-255, 6-chloro-N-[5-(cyanomethyl)-3-fluoro-6-methoxypyridin-2-yl]-1H-indole-3-sulfonamide], on GPR17 [1], the Kb is less than 3.16 nM. Moreover, the IC50 on GPR17 [2] was less than 3.16 nM.
For `O=S(=O)(Nc1ccc(Cl)cn1)c1c[nH]c2cc(Cl)ccc12` [Compound I-63, 6-chloro-N-(5-chloropyridin-2-yl)-1H-indole-3-sulfonamide], the Kb on GPR17 [1] was 3.16 to 31.6 nM. Moreover, the IC50 at GPR17 [2] is more than 31.6 nM.
For `COc1cc(Br)c(F)nc1NS(=O)(=O)c1c[nH]c2cc(Cl)ccc12` [Compound I-349, N-(5-bromo-6-fluoro-3-methoxypyridin-2-yl)-6-chloro-1H-indole-3-sulfonamide], the Kb at GPR17 [1] is less than 3.16 nM. In addition, the IC50 on GPR17 [2] is less than 3.16 nM.
Turning to `O=S(=O)(Nc1ccc(Cl)cc1F)c1c[nH]c2cc(Cl)ccc12` [Compound I-141, 6-chloro-N-(4-chloro-2-fluorophenyl)-1H-indole-3-sulfonamide], the Kb at GPR17 [1] was less than 3.16 nM. The IC50 on GPR17 [2] is 3.16 to 31.6 nM.
The like results for `O=S(=O)(Nc1cc(F)ccc1F)c1c[nH]c2nc(Br)ccc12` [Compound I-88, 6-bromo-N-(2,5-difluorophenyl)-1H-pyrrolo[2,3-b]pyridine-3-sulfonamide] were, in that order, 3.16 to 31.6 nM and 3.16 to 31.6 nM.
Take `N#Cc1ccc(NS(=O)(=O)c2c[nH]c3c(Br)c(Cl)ccc23)c(F)c1` [Compound I-341, 7-bromo-6-chloro-N-(4-cyano-2-fluorophenyl)-1H-indole-3-sulfonamide]: the Kb on GPR17 [1] was less than 3.16 nM. Further, on GPR17 [2], the IC50 was less than 3.16 nM.
